In data set [1] the test system is Anas platyrhynchos. To be noted: oral, mortality.
Data set [2] concerns Apis mellifera. The note with it: acute; duration: 48 hours; oral; unspecified; mortality.
Data set [3] has as its system Canidae. The note with it: chronic; duration: 52 weeks; oral; Dog Other.
Data set [4] has as its system Colinus virginianus.
Data set [5] has as its system Daphnia magna. The note with it: chronic/long-term; duration: 21 days.
Data set [6] has as its system Ictalurus punctatus. The note with it: acute; duration: 96 hours; mortality.
The subject of data set [7] is Oncorhynchus mykiss. To be noted: chronic/long-term; duration: 21 days.
Data set [8] relates to Oryctolagus sp. To be noted: reproduction developmental; reproduction.
Data set [9] has as its system Rattus norvegicus.
Data set [10] concerns Tagia sp.

≈ marks a conversion by molar mass, not a printed value.

As to `N#Cc1sc2c(=O)c3ccccc3c(=O)c=2sc1C#N` [Dithianon], the LD50 is more than 2000 mg/kg-day in [1] (acute, unspecified); more than 25.4 µg/piece in data set [2]; 309 mg/kg-day in data set [4] (acute, oral, mortality); less than 500 mg/kg-day in data set [9] (acute, oral, mortality). The LC50 was more than 790 mg/kg-day in data set [1] (short-term, feed); more than 1200 mg/kg-day in data set [4] (acute, oral, diet, mortality); 0.0143 µg/mL (≈ 0.0483 µM) in data set [6]; 578 mg/kg in data set [10] (acute, duration: 14 days, mortality). The NOAEL in data set [3] was 1.6 mg/kg-day; in data set [8], 25 mg/kg-day; in [9] (chronic, histopathology: neoplastic), 1 mg/kg-day; in data set [9] (short-term, duration: 7 days, oral, histopathology: nonneoplastic) it was 12 mg/kg-day; in data set [9] (short-term, duration: 28 days, oral, histopathology: nonneoplastic), 12 mg/kg-day. Besides, the NOEC turned out to be 22.8 mg/kg-day in data set [4] (reproduction developmental, reproduction); 0.0595 mg/L in data set [5]; 0.00046 mg/L in data set [7]; 48 mg/kg in data set [10] (chronic/long-term, duration: 56 days, reproduction).

These data come from EPA's ToxValDB 9.5 (doi:10.2903/j.efsa.2010.1904).
